Data reported in article PMC3193053 (Analytical chemistry, 2011).

Tested on: VHH T9
Experiment: Cross-reactivity of the TCC competitive ELISA set up with VHH T9
Format: binding, Lama glama
Conditions: CR% = IC50 (TCC) ÷ IC50 (cross-reacting compound) × 100

Compound | CR (%)
O=C(Nc1ccc(Cl)c(Cl)c1)Nc1ccc(Cl)cc1O [2′-OH TCC] | 16.9%
O=C(Nc1ccc(Cl)c(Cl)c1)Nc1ccc(Cl)c(Cl)c1 [3,3′,4,4′-Tetrachloro-carbanilide] | 2.46%
O=C(Nc1ccc(Cl)cc1)Nc1ccc(Cl)c(C(F)(F)F)c1 [3-Trifluoromethyl-4,4′-dichlorocarbanilide] | 6.97%
O=C(Nc1ccc(Cl)cc1)Nc1ccc(Cl)cc1 [4,4′-Dichlorocarbanilide] | 13.3%
O=C(Nc1ccccc1)Nc1ccccc1 [Carbanilide] | 1.78%
O=C(Nc1ccc(Cl)c(Cl)c1)Nc1ccc(Cl)cc1OS(=O)(=O)O [Sulfate of 2′-OH TCC] | <0.1%
O=C(Nc1ccc(Cl)cc1)Nc1ccc(Cl)c(Cl)c1 [TCC, 3,4,4′-trichlorocarbanilide] | 100%
Oc1cc(Cl)ccc1Oc1ccc(Cl)cc1Cl [Triclosan] | <0.1%
CC(=O)N1CCC(NC(=O)Nc2ccc(OC(F)(F)F)cc2)CC1 [sEHi, #1555] | <0.1%
CS(=O)(=O)N1CCC(NC(=O)Nc2ccc(OC(F)(F)F)cc2)CC1 [sEHi, #1709] | <0.1%
Dinuron | <0.1%
